{"source": "patent US20090197955A1", "about": "“METHODS OF IMPROVING DHA DEPOSITION AND RELATED FUNCTION AND/OR DEVELOPMENT” (Monsanto Company, priority 2008, published 2009)", "assay": "Fatty acid composition of pig tissues (ham, loin, belly, skin) after feeding SDA ethyl ester diets, 35 day study", "assay_type": "in vivo, pigs", "method": "A 35 day study was conducted to determine whether pigs fed a diet containing SDA could enhance tissues with improved fatty acid profiles including increased levels of SDA, EPA, and DHA.\nFour test diets (Treatment 2, 3, 4, and 5) with SDA ethyl ester substituted for corn oil to provide 0.2, 0.4, 0.6 and 0.8% (w/w SDA active ingredient, as-is basis) were fed ad libitum to one pen of four pigs throughout the 35-day test period Table 4). All diets were fed in meal form. Treatment 6 was fed the same diet as Treatment 5, but for a duration of only 21 days.\nAll pigs were individually weighed at initiation of the acclimation and test period, and immediately prior to slaughter. Feed consumption per pen was recorded. Upon completion of the feeding period, pigs were slaughtered for tissue collection and carcass evaluation. Pigs were slaughtered using standard industry practices (electrical stunning, exsanguinations, scalding, dehairing and evisceration). Live weights prior to slaughter and hot carcass weights were recorded. The left side of each carcass was fabricated and samples were obtained from the loin (longissimus muscle), ham (semimembranosus muscle) and belly (a section from the center of the belly) for sensory evaluation, fatty acid, and proximate analysis. Prior to removing the sample for sensory and fatty and proximate analysis from the belly the firmness of the belly was evaluated using a flop test. At 24 hr postmortem fat thickness (10th rib), loin eye area (10th rib), visual color, firmness and marbling, Minolta color (L*a*b*), pH, and drip loss were measured.\nIn order to evaluate the fatty acid composition of pig tissues (loin, ham, skin, and belly), samples were stored at −80° C. until evaluation. After thawing, ˜22 g of fresh pig tissue was chopped into small pieces and thoroughly mixed before 10 g was sub sampled and lyophilized. Lyophilized samples were ground in 30 ml Sarstedt tubes with two ball bearings using a Mega Grinder. Ground samples (loin and ham: 50 mg; skin: 100 mg; belly: 150 mg; diet: 500 mg) were directly methylated with sulfuric acid in methanol (loin and ham: 1 mL; skin: 3 mL; belly: 10 mL; diet: 1.5 mL) sealed in the presence of butylated hydroxytoluene (50 mg BHT in 100 ml reagent) in reflux conditions of 90° C. Resultant fatty acid methyl esters (FAME's) were separated by capillary gas chromatography (GC) and detected by flame ionization detector (FID). The column used was a Supelco Omegawax 250 capillary column with dimensions of 30 m×0.25 mm×0.25 μm film thickness. The run time was 32 minutes. Peaks were identified based on their relative retention time compared to a FAME reference mixture. Quantification was achieved by using an internal standard (c15:0 triacylglyceride (TAG) for pig tissue samples and c17:0 TAG for diet samples). Results are reported as FA g/100 g fat with theoretical response correction.\nFor Table 6 below, each value represents g/100 g total fatty acids a mean of 4 samples (1 sample from each of 4 pigs) per treatment."}
{"smiles": "CC/C=C\\C/C=C\\C/C=C\\C/C=C\\CCCCC(=O)O", "note": "[SDA, stearidonic acid]", "values": [{"measurement": "22:3 n-6, ham", "setting": "0.8% SDA feed, 35 days", "result": 0.24, "unit": "g FA per 100 g fat"}, {"measurement": "22:5 n-3 (DPA), ham", "setting": "0.8% SDA feed, 35 days", "result": 0.83, "unit": "g FA per 100 g fat"}, {"measurement": "22:6 n-3 (DHA), ham", "setting": "0.8% SDA feed, 35 days", "result": 0.13, "unit": "g FA per 100 g fat"}, {"measurement": "24:1 n-9, ham", "setting": "0.8% SDA feed, 35 days", "result": 0.07, "unit": "g FA per 100 g fat"}, {"measurement": "Total PUFA, ham", "setting": "0.8% SDA feed, 35 days", "result": 18.89, "unit": "g FA per 100 g fat"}, {"measurement": "Total monoenes, ham", "setting": "0.8% SDA feed, 35 days", "result": 43.54, "unit": "g FA per 100 g fat"}, {"measurement": "Total n-3, ham", "setting": "0.8% SDA feed, 35 days", "result": 2.64, "unit": "g FA per 100 g fat"}, {"measurement": "Total n-6, ham", "setting": "0.8% SDA feed, 35 days", "result": 16.25, "unit": "g FA per 100 g fat"}, {"measurement": "Total saturates, ham", "setting": "0.8% SDA feed, 35 days", "result": 33.18, "unit": "g FA per 100 g fat"}, {"measurement": "n-6/n-3, ham", "setting": "0.8% SDA feed, 35 days", "result": 6.16}, {"measurement": "12:0, ham", "setting": "SDA 0.2%, 35 Day", "result": "2.04 mg FA/100 g of fresh tissue"}, {"measurement": "14:0, ham", "setting": "SDA 0.2%, 35 Day", "result": "34.0 mg FA/100 g of fresh tissue"}, {"measurement": "16:0, ham", "setting": "SDA 0.2%, 35 Day", "result": "673.5 mg FA/100 g of fresh tissue"}, {"measurement": "16:1 n-7, ham", "setting": "SDA 0.2%, 35 Day", "result": "116.6 mg FA/100 g of fresh tissue"}, {"measurement": "18:0, ham", "setting": "SDA 0.2%, 35 Day", "result": "313.7 mg FA/100 g of fresh tissue"}, {"measurement": "18:1 n-7, ham", "setting": "SDA 0.2%, 35 Day", "result": "146.2 mg FA/100 g of fresh tissue"}, {"measurement": "18:1 n-9, ham", "setting": "SDA 0.2%, 35 Day", "result": "1303.4 mg FA/100 g of fresh tissue"}, {"measurement": "18:2 n-6, ham", "setting": "SDA 0.2%, 35 Day", "result": "264.7 mg FA/100 g of fresh tissue"}, {"measurement": "18:3 n-3, ham", "setting": "SDA 0.2%, 35 Day", "result": "5.60 mg FA/100 g of fresh tissue"}, {"measurement": "18:4 n-3, ham", "setting": "SDA 0.2%, 35 Day", "result": "0.76ab mg FA/100 g of fresh tissue"}, {"measurement": "20:1 n-9, ham", "setting": "SDA 0.2%, 35 Day", "result": "22.0 mg FA/100 g of fresh tissue"}, {"measurement": "20:2 n-6, ham", "setting": "SDA 0.2%, 35 Day", "result": "11.4a mg FA/100 g of fresh tissue"}, {"measurement": "20:3 n-3, ham", "setting": "SDA 0.2%, 35 Day", "result": "0.91 mg FA/100 g of fresh tissue"}, {"measurement": "20:4 n-3, ham", "setting": "SDA 0.2%, 35 Day", "result": "2.23ab mg FA/100 g of fresh tissue"}, {"measurement": "20:4 n-6, ham", "setting": "SDA 0.2%, 35 Day", "result": "57.4 mg FA/100 g of fresh tissue"}, {"measurement": "20:5 n-3, ham", "setting": "SDA 0.2%, 35 Day", "result": "3.98a mg FA/100 g of fresh tissue"}, {"measurement": "22:1 n-11, ham", "setting": "SDA 0.2%, 35 Day", "result": "1.06ab mg FA/100 g of fresh tissue"}, {"measurement": "22:5 n-3, ham", "setting": "SDA 0.2%, 35 Day", "result": "11.1b mg FA/100 g of fresh tissue"}, {"measurement": "22:6 n-3, ham", "setting": "SDA 0.2%, 35 Day", "result": "2.21 mg FA/100 g of fresh tissue"}, {"measurement": "Lipid content, ham", "setting": "SDA 0.2%, 35 Day", "result": 3.15, "unit": "%"}, {"measurement": "Total PUFA, ham", "setting": "SDA 0.2%, 35 Day", "result": "377.9 mg FA/100 g of fresh tissue"}, {"measurement": "Total monoenes, ham", "setting": "SDA 0.2%, 35 Day", "result": "1600 mg FA/100 g of fresh tissue"}, {"measurement": "Total n-3, ham", "setting": "SDA 0.2%, 35 Day", "result": "26.8a mg FA/100 g of fresh tissue"}, {"measurement": "Total n-6, ham", "setting": "SDA 0.2%, 35 Day", "result": "351.2 mg FA/100 g of fresh tissue"}, {"measurement": "Total saturates, ham", "setting": "SDA 0.2%, 35 Day", "result": "1029.0 mg FA/100 g of fresh tissue"}, {"measurement": "n-3/n-6, ham", "setting": "SDA 0.2%, 35 Day", "result": 0.080, "unit": "b"}, {"measurement": "12:0, ham", "setting": "SDA 0.4%, 35 Day", "result": "2.22 mg FA/100 g of fresh tissue"}, {"measurement": "14:0, ham", "setting": "SDA 0.4%, 35 Day", "result": "38.2 mg FA/100 g of fresh tissue"}, {"measurement": "16:0, ham", "setting": "SDA 0.4%, 35 Day", "result": "748.4 mg FA/100 g of fresh tissue"}, {"measurement": "16:1 n-7, ham", "setting": "SDA 0.4%, 35 Day", "result": "121.6 mg FA/100 g of fresh tissue"}, {"measurement": "18:0, ham", "setting": "SDA 0.4%, 35 Day", "result": "370.6 mg FA/100 g of fresh tissue"}, {"measurement": "18:1 n-7, ham", "setting": "SDA 0.4%, 35 Day", "result": "151.0 mg FA/100 g of fresh tissue"}, {"measurement": "18:1 n-9, ham", "setting": "SDA 0.4%, 35 Day", "result": "1404.9 mg FA/100 g of fresh tissue"}, {"measurement": "18:2 n-6, ham", "setting": "SDA 0.4%, 35 Day", "result": "316.6 mg FA/100 g of fresh tissue"}, {"measurement": "18:3 n-3, ham", "setting": "SDA 0.4%, 35 Day", "result": "9.17 mg FA/100 g of fresh tissue"}, {"measurement": "18:4 n-3, ham", "setting": "SDA 0.4%, 35 Day", "result": "1.45b mg FA/100 g of fresh tissue"}, {"measurement": "20:1 n-9, ham", "setting": "SDA 0.4%, 35 Day", "result": "23.6 mg FA/100 g of fresh tissue"}, {"measurement": "20:2 n-6, ham", "setting": "SDA 0.4%, 35 Day", "result": "12.7a mg FA/100 g of fresh tissue"}, {"measurement": "20:3 n-3, ham", "setting": "SDA 0.4%, 35 Day", "result": "1.49 mg FA/100 g of fresh tissue"}, {"measurement": "20:4 n-3, ham", "setting": "SDA 0.4%, 35 Day", "result": "5.04bc mg FA/100 g of fresh tissue"}, {"measurement": "20:4 n-6, ham", "setting": "SDA 0.4%, 35 Day", "result": "64.3 mg FA/100 g of fresh tissue"}, {"measurement": "20:5 n-3, ham", "setting": "SDA 0.4%, 35 Day", "result": "7.91b mg FA/100 g of fresh tissue"}, {"measurement": "22:1 n-11, ham", "setting": "SDA 0.4%, 35 Day", "result": "1.25b mg FA/100 g of fresh tissue"}, {"measurement": "22:5 n-3, ham", "setting": "SDA 0.4%, 35 Day", "result": "15.2c mg FA/100 g of fresh tissue"}, {"measurement": "22:6 n-3, ham", "setting": "SDA 0.4%, 35 Day", "result": "2.59 mg FA/100 g of fresh tissue"}, {"measurement": "Lipid content, ham", "setting": "SDA 0.4%, 35 Day", "result": 3.5, "unit": "%"}, {"measurement": "Total PUFA, ham", "setting": "SDA 0.4%, 35 Day", "result": "459.2 mg FA/100 g of fresh tissue"}, {"measurement": "Total monoenes, ham", "setting": "SDA 0.4%, 35 Day", "result": "1715 mg FA/100 g of fresh tissue"}, {"measurement": "Total n-3, ham", "setting": "SDA 0.4%, 35 Day", "result": "42.9b mg FA/100 g of fresh tissue"}, {"measurement": "Total n-6, ham", "setting": "SDA 0.4%, 35 Day", "result": "416.4 mg FA/100 g of fresh tissue"}, {"measurement": "Total saturates, ham", "setting": "SDA 0.4%, 35 Day", "result": "1166.5 mg FA/100 g of fresh tissue"}, {"measurement": "n-3/n-6, ham", "setting": "SDA 0.4%, 35 Day", "result": 0.101, "unit": "bc"}, {"measurement": "12:0, ham", "setting": "SDA 0.6%, 35 Day", "result": "1.37 mg FA/100 g of fresh tissue"}, {"measurement": "14:0, ham", "setting": "SDA 0.6%, 35 Day", "result": "23.9 mg FA/100 g of fresh tissue"}, {"measurement": "16:0, ham", "setting": "SDA 0.6%, 35 Day", "result": "482.6 mg FA/100 g of fresh tissue"}, {"measurement": "16:1 n-7, ham", "setting": "SDA 0.6%, 35 Day", "result": "69.5 mg FA/100 g of fresh tissue"}, {"measurement": "18:0, ham", "setting": "SDA 0.6%, 35 Day", "result": "252.5 mg FA/100 g of fresh tissue"}, {"measurement": "18:1 n-7, ham", "setting": "SDA 0.6%, 35 Day", "result": "92.6 mg FA/100 g of fresh tissue"}, {"measurement": "18:1 n-9, ham", "setting": "SDA 0.6%, 35 Day", "result": "854.9 mg FA/100 g of fresh tissue"}, {"measurement": "18:2 n-6, ham", "setting": "SDA 0.6%, 35 Day", "result": "215.7 mg FA/100 g of fresh tissue"}, {"measurement": "18:3 n-3, ham", "setting": "SDA 0.6%, 35 Day", "result": "5.03 mg FA/100 g of fresh tissue"}]}
